Legend:
mouse ES cells = test: Culture of pluripotent (ES) cells with inhibitors to promote self renewal; assay type: cell-based
Excerpt: Mix DMEM/F12-N2 medium with Neurobasal/B27 medium at the ration of 1:1. The media was used to dilute all compounds and grow the cells.

GSK3 = details: cited from earlier work
3i rat cells = test: Maintenance of undifferentiated rat 3i cells under altered culture conditions; assay type: cell-based
Excerpt: We investigated the effect of altering the culture conditions on maintenance of the undifferentiated state. […] LIF is not included in culture medium, consistent with the sufficiency of 3i for mouse ES cells. Rat cells transferred from 3i to medium supplemented with serum and LIF or BMP and LIF differentiated into various morphologies and lost expression of Oct4 and Nanog (FIG. 13a). These observations indicate that the 3i rat cells have reduced responsiveness to gp130/Stat3 signalling compared with mouse ES cells^20, 21. This may be a significant contributory factor to previous failures to derive rat ES cells.
Cells cultured without inhibitors differentiated into various morphologies (FIG. 13b). […] These findings are consistent with the hypothesis that blockade of FGF/Erk signaling is the critical requirement to sustain the naïve pluripotent state (Ying et al., submitted).
Recently the derivation of cell lines from post-implantation egg cylinder stage epiblast has been reported in mice and rats^3, 10. […] In contrast the 3i rat cells do contribute to chimaeras. They also express Rex1, Stella (Dppa3) and alkaline phosphatase, markers of ES cells and early epiblast that are absent in EpiSCs. Furthermore 3i rat cells can readily be propagated after dissociation into single cells whereas maintained cell-cell contact appears critical for EpiSCs. […]

CCN(CC)CCCCNc1ncc2cc(-c3cc(OC)cc(OC)c3)c(NC(=O)NC(C)(C)C)nc2n1 [PD173074]
fold lower concentration at which fully effective as substitute for SU5402 (mouse ES cells; relative to SU5402): about 100 fold

Cc1c[nH]c(-c2cnc(NCCNc3ccc(C#N)cn3)nc2-c2ccc(Cl)cc2Cl)n1 [CHIR 99021]
specificity (GSK3): specific for GSK3 | results as GSK3 inhibitor in culture of pluripotent cells (mouse ES cells): Good results

CHIR 98014
specificity (GSK3): specific for GSK3 | results as GSK3 inhibitor in culture of pluripotent cells (mouse ES cells): Good results

NC(=O)c1ccc(-c2nc(-c3ccccn3)c(-c3ccc4c(c3)OCO4)[nH]2)cc1 [SB431452]
maintenance / propagation of undifferentiated rat cells (3i rat cells): did not impede propagation

— patent US8431395B2, “Pluripotent cells from rat and other species” (The University Court of the University of Edinburgh, priority 2006, dated 2013)
